From US7592457B2 (Korea Research Institute of Chemical Technology, priority 2004, dated 2009)

Legend:
[1] = biological target: T1, human serotonin 5-HT6 receptor (Homo sapiens, UniProt P50406); assay: [3H]LSD binding at cloned 5-HT6 receptors
T1 construct: made in house; host or cells: Sf21 insect cells (pBacPAK8 baculovirus vector)

D1 = D1 (Homo sapiens, UniProt P21728); assay: Radioligand binding for selectivity, D1; details: read-out: Binding affinity (Inhibition rate % at 10 μM) D1
hD2L receptor = biological target: T2, hD2L receptor (Homo sapiens, UniProt P14416); assay: Radioligand binding, dopamine D2 ([3H]spiperone); details: read-out: Binding affinity (Inhibition rate % at 10 μM) D2
T2 construct: purchased BioSignal Packard Inc., Montreal, Canada
T2 sequence (P14416 whole entry): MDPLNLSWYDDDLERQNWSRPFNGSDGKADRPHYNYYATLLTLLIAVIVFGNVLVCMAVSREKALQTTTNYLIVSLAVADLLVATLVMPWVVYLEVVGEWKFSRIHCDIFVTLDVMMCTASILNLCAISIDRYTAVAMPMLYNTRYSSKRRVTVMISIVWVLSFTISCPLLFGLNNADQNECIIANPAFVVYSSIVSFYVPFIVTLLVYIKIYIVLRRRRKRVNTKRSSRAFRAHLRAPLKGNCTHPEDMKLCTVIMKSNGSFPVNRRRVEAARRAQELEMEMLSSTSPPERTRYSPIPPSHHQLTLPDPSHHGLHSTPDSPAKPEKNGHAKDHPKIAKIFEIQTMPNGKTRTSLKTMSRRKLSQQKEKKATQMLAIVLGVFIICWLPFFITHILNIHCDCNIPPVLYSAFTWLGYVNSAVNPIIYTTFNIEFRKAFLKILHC

hD3 receptor = biological target: T3, hD3 receptor (Homo sapiens, UniProt P35462); assay: Radioligand binding, dopamine D3 ([3H]spiperone); details: read-out: Binding affinity (Inhibition rate % at 10 μM) D3
T3 construct: purchased BioSignal Packard Inc., Montreal, Canada
T3 sequence (P35462 whole entry): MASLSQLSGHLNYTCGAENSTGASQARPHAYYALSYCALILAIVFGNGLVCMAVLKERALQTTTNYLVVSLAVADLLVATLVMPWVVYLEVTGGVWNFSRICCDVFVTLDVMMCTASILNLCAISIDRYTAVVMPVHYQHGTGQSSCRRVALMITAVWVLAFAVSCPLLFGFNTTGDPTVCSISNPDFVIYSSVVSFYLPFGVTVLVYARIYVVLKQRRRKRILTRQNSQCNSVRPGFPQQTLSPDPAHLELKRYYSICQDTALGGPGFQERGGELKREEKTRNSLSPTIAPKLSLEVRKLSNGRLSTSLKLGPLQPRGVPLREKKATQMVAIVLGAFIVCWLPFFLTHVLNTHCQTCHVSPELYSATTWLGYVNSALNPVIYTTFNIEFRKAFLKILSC

hD4.2 receptor = biological target: T4, hD4.2 receptor (Homo sapiens, UniProt P21917, DEL265-296); assay: Radioligand binding, dopamine D4 ([3H]YM-09151-2); details: read-out: Binding affinity (Inhibition rate % at 10 μM) D4
T4 construct: purchased BioSignal Packard Inc., Montreal, Canada
T4 sequence (P21917 with tags, fused parts or gaps DEL265-296): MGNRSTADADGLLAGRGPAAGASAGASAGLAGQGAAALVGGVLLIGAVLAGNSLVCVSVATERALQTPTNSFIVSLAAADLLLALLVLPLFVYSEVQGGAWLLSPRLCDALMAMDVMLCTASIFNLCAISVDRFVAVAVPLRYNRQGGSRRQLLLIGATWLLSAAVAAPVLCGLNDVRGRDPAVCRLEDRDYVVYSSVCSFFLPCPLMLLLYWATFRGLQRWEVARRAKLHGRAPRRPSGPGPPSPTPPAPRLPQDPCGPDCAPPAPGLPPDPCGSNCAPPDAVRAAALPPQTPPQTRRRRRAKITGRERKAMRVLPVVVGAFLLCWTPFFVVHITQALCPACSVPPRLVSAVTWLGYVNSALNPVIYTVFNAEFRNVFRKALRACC

5-HT1a = biological target: T5, 5-HT1a (Homo sapiens, UniProt P08908); assay: Radioligand binding, 5-HT1a ([3H]8-OH-DPAT); details: read-out: Binding affinity (Inhibition rate % at 10 μM) 5HT1a
T5 construct: purchased Euroscreen/BioSignal Packard Inc
T5 sequence (P08908 1-422): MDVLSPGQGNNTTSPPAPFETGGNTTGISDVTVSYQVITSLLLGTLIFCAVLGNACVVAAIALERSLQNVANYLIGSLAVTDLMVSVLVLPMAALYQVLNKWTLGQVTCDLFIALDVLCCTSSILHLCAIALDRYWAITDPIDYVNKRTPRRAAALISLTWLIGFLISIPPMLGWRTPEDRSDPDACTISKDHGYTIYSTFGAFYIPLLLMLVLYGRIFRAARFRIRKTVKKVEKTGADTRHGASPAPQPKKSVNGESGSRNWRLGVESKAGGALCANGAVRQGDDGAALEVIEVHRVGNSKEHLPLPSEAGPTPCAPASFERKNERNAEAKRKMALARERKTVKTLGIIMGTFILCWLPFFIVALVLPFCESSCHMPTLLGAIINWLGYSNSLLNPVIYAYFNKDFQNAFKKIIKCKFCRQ
Description: (§1) Radioligand bindings were performed according to the test method provided by the supplier of receptor membrane (Euroscreen/BioSignal Packard Inc.).

5-HT2a = biological target: T6, 5-HT2a (Homo sapiens, UniProt P28223); assay: Radioligand binding, 5-HT2a ([3H]Ketanserin); details: read-out: Binding affinity (Inhibition rate % at 10 μM) 5HT2a
T6 construct: purchased Euroscreen/BioSignal Packard Inc
T6 sequence (P28223 whole entry): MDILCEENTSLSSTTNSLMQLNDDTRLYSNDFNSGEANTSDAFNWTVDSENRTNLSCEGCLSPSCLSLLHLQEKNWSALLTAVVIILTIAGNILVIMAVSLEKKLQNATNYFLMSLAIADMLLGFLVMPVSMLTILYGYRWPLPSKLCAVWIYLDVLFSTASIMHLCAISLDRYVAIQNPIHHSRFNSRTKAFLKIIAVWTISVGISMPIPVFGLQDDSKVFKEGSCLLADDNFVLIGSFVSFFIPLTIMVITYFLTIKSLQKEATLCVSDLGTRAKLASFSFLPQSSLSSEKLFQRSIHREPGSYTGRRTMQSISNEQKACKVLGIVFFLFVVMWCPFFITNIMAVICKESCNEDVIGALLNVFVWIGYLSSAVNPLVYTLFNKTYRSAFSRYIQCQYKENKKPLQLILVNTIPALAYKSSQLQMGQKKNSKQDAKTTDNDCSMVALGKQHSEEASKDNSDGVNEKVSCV
Description: as §1

5-HT2c = biological target: T7, 5-HT2c (Homo sapiens, UniProt P28335); assay: Radioligand binding, 5-HT2c ([3H]Mesulergine); details: read-out: Binding affinity (Inhibition rate % at 10 μM) 5HT2c
T7 construct: purchased Euroscreen/BioSignal Packard Inc
T7 sequence (P28335 33-458): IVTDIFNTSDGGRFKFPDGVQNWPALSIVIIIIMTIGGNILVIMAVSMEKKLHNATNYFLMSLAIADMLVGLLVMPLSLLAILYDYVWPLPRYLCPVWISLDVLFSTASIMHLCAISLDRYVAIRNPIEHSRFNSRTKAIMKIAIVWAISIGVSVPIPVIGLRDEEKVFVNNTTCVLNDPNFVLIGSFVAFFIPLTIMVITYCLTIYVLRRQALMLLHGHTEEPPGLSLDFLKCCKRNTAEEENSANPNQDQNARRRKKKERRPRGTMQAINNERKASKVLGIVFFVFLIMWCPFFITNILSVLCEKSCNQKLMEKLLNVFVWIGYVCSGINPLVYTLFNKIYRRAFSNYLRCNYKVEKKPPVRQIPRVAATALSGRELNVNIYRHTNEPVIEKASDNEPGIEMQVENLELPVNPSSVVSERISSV
Description: as §1

5-HT7 = biological target: T8, 5-HT7 (Homo sapiens, UniProt P34969); assay: Radioligand binding, 5-HT7 ([3H]LSD)
T8 construct: purchased Euroscreen/BioSignal Packard Inc
T8 sequence (P34969 whole entry): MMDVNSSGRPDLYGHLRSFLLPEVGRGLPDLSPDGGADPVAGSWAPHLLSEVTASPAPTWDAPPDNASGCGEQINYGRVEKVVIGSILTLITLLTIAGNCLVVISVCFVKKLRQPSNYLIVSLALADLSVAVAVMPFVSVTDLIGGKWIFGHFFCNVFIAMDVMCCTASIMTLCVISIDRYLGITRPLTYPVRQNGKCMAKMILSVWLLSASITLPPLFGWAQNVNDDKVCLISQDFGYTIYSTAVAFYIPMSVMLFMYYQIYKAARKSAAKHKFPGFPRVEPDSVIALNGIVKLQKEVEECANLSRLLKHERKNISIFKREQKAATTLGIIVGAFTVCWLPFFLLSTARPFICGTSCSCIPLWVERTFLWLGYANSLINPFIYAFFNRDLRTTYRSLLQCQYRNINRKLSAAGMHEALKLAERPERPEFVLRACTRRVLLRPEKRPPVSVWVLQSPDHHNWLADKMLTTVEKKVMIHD
Description: as §1

5-HT6 receptors = 5-HT6 receptors (Homo sapiens, UniProt P50406); details: literature; cited from earlier work
Chain of 5-HT6 receptors (P50406 whole entry): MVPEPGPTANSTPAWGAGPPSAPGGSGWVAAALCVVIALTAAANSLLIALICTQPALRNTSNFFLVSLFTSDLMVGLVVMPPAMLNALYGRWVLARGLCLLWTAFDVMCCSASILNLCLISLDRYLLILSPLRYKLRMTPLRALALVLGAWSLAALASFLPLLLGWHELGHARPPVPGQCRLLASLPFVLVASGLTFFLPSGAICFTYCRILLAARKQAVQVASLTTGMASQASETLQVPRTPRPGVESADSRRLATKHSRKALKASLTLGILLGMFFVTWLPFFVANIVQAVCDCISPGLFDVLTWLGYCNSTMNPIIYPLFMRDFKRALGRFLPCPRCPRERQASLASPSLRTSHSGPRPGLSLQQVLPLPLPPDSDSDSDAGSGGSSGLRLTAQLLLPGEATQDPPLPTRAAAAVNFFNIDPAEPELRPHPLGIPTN

[2] = tested on: rat maximal electroseizure threshold; details: literature; cited from earlier work
rats [3] = details: literature; cited from earlier work
rats [4] = details: literature; cited from earlier work; remark: listed apart in the source
rats [5] = details: water maze, literature; cited from earlier work
[6] = tested on: extracellular glutamate levels; details: frontal cortex and dorsal hippocampus, literature; cited from earlier work
[7] = literature; cited from earlier work

Chain of D1 (P21728 whole entry): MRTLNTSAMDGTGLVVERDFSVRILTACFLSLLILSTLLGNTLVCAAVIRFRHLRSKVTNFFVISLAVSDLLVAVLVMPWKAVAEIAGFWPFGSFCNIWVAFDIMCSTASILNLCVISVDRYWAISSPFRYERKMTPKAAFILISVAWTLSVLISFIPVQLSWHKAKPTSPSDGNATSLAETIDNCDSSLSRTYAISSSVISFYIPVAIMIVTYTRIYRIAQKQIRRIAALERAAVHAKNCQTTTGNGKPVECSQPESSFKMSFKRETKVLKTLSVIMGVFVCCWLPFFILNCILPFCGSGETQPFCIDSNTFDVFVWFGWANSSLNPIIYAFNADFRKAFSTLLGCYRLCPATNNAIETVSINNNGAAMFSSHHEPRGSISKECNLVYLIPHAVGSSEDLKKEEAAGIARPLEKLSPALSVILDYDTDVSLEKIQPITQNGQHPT
T1 sequence (P50406 whole entry): as the sequence (P50406 whole entry) above

SMILES | IC50 ([1]; [3H]LSD 1.87 nM, cloned receptor membranes, 37° C., 60 min, read-out: IC50) | inhibition at 10 µM ([1]; read-out: Binding affinity (Inhibition rate % at 10 μM) 5HT6) | inhibition at 10 µM (D1) | inhibition at 10 µM (hD2L receptor) | inhibition at 10 µM (hD3 receptor) | inhibition at 10 µM (hD4.2 receptor) | inhibition at 10 µM (5-HT1a) | inhibition at 10 µM (5-HT2a) | inhibition at 10 µM (5-HT2c) | inhibition at 10 µM (5-HT7; read-out: Binding affinity (Inhibition rate % at 10 μM) 5HT7) | Ki (5-HT6 receptors) | anticonvulsant activity [2] | food intake (rats [3]) | behavior of yawning, stretching, and chewing (rats [4]) | Binding affinity (Inhibition rate % at 10 μM) 5HT7 (5-HT7; 10 μM) | retention of a previously learned task (rats [5]) | extracellular glutamate levels [6] | oral bioavailability [7]
COc1cc2c(c(OC)c1)C(=O)C(C)(c1ccccc1)C(=O)N2 (centres unmarked) [Example 8, 5,7-dimethoxy-3-methyl-3-phenyl-1H-quinoline-2,4-dione] | 118 nM | 74% | 16.9% | 16% | 4.6% | 0.8% | 30.2% | 13.6% | 23.9% | 23.3% | 1.4 nM | – | – | – | – | – | – | –
CNc1cc(NS(=O)(=O)c2ccc(N)cc2)nc(NC)n1 [Ro 04-6790] | – | – | – | – | – | – | – | – | – | – | – | possess anticonvulsant activity | decreased food intake | capable of inducing this same effect | – | – | – | –
COc1ccc(NS(=O)(=O)c2sc3ccc(Cl)cc3c2C)cc1N1CCNCC1 [SB-271046, reference compound] | – | – | 49.7% | 17.3% | 66.2% | 14.2% | 84.2% | 60.1% | 64.3% | – | – | possess anticonvulsant activity | – | – | 34.9% | significant improvement in retention of a previously learned task | increased extracellular glutamate levels in frontal cortex and dorsal hippocampus by several fold | > 80%
